# Target: T1, BTK (Homo sapiens (Human), UniProt Q06187)
# Assay: In house ELISA kinase inhibition assay, BTK
# Assay type: biochemical
# Conditions: footnote b: from in house procedure (ELISA)
# Method: (§1) BTK inhibition Assay and selectivity Assay The assay was conducted either a by a third party (Reaction Biology Corporation, PA, USA) or in house.
# b) In House Procedure for BTK, BMX, EGFR and ITK:
# Kinase inhibitory activities of compounds were evaluated using the Enzyme-linked immunosorbent assay (ELISA). The kinase enzyme of BTK, BMX, EGFR and ITK were purchased from Carna Bioscience (Kobe, Japan). A total of 10 ng/mL antiphosphotyrosine (PY713) antibody (abcam, Cambridge Science Park, UK) was precoated in 96-well ELISA plates. The kinase enzymes in each reaction well were set to BTK (101.25 ng/mL), BMX (90 ng/mL), EGFR (90 ng/mL) or ITK (120 ng/mL) and incubated with indicated drugs in 1× reaction buffer (50 mmol/L HEPES pH 7.4, 20 mmol/L MgCl2, 0.1 mmol/L MnCl2, 1 mmol/L DTT) containing 20 μmol/L (the final concentration of substrate in ITK reaction was 30 μmol/L) substrate (NH2-[…]-biotin) at 25° C. for 1 h. Then, a total of 3 μmol/L ATP was added and the reaction was continued for 2 h. The products of reaction were transferred into 96-well ELISA plates containing antibody and incubated at 25° C. for 30 min. After incubation, the wells were washed with PBS and then incubated with horseradish peroxidase (HRP)-conjugated streptavidin. The wells were visualized using 3,3′,5,5′-tetramethylbenzidine (TMB), and chromogenic reaction was ended with 2 mol/L H2SO4, the absorbance was read with a multimode plate reader (PerkinElmer, USA) at 450 nm. IC50 values and curve fits were obtained using Prism (GraphPad Software). (Table I-IV)
# T1 sequence (Q06187 whole entry): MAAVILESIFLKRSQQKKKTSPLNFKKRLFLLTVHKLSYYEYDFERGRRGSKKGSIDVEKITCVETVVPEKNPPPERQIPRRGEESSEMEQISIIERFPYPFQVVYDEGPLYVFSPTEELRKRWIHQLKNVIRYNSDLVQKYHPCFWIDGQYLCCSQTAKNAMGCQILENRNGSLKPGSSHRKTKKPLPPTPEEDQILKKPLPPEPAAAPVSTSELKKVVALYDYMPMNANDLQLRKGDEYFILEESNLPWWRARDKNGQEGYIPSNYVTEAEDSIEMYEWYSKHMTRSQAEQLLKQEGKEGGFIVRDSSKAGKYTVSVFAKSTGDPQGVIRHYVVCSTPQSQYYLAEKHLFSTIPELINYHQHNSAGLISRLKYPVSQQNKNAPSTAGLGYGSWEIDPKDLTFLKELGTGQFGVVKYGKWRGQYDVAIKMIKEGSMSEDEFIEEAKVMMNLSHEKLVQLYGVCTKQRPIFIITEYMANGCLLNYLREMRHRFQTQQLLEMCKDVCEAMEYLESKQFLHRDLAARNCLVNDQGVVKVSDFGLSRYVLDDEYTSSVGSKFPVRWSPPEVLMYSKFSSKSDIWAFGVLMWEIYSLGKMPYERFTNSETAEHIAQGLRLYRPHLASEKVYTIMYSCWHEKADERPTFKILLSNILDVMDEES
row,IC50,SMILES
1,17.9 nM,"CC#CC(=O)N1CCCC[C@H]1c1nc(-c2ccc(C(=O)Nc3cc(CC)ccn3)cc2)c(C(N)=O)n1N [Example 77, (S)-1-amino-2-(1-(but-2-ynoyl)piperidin-2-yl)-4-(4-((4-ethylpyridin-2-yl)carbamoyl)phenyl)-1H-imidazole-5-carboxamide]"
2,6560 nM,"CCc1ccnc(NC(=O)c2ccc(-c3nc([C@@H]4CCCCN4C(=O)/C(C#N)=C/C4CC4)n(N)c3C(N)=O)cc2)c1 [Example 78, (S,E)-1-amino-2-(1-(2-cyano-3-cyclopropylacryloyl)piperidin-2-yl)-4-(4-((4-ethylpyridin-2-yl)carbamoyl)phenyl)-1H-imidazole-5-carboxamide]"
3,1720 nM,"CCc1ccnc(NC(=O)c2ccc(-c3nc([C@@H]4CCCCN4C(=O)/C(C#N)=C/C(C)C)n(N)c3C(N)=O)cc2)c1 [Example 79, (S,E)-1-amino-2-(1-(2-cyano-4-methylpent-2-enoyl)piperidin-2-yl)-4-(4-((4-ethylpyridin-2-yl)carbamoyl)phenyl)-1H-imidazole-5-carboxamide]"
4,45.6 nM,"CC#CC(=O)N1CCCC[C@H]1c1nc(-c2ccc(C(=O)Nc3cc(C#N)ccn3)cc2)c(C(N)=O)n1N [Example 82, (S)-1-amino-2-(1-(but-2-ynoyl)piperidin-2-yl)-4-(4-((4-cyanopyridin-2-yl)carbamoyl)phenyl)-1H-imidazole-5-carboxamide]"
5,226 nM,"C=CC(=O)N1CCCCCC1c1nc(-c2ccc(C(=O)Nc3cc(CC)ccn3)cc2)c(C(N)=O)n1N (stereo not shown) [Example 94, 2-(1-acryloylazepan-2-yl)-1-amino-4-(4-((4-ethylpyridin-2-yl)carbamoyl)phenyl)-1H-imidazole-5-carboxamide]"
6,85.6 nM,"C=CC(=O)N1CC2(CC(c3nc(-c4ccc(C(=O)Nc5cc(CC)ccn5)cc4)c(C(N)=O)n3N)C2)C1 [Example 95, 2-(2-acryloyl-2-azaspiro[3.3]heptan-6-yl)-1-amino-4-(4-((4-ethylpyridin-2-yl)carbamoyl)phenyl)-1H-imidazole-5-carboxamide]"
7,19.2 nM,"C#CC(=O)N1CCCC[C@H]1c1nc(-c2ccc(C(=O)Nc3cc(C)ccn3)cc2)c(C(N)=O)n1N [Example 96, (S)-1-amino-4-(4-((4-methylpyridin-2-yl)carbamoyl)phenyl)-2-(1-propioloylpiperidin-2-yl)-1H-imidazole-5-carboxamide]"
8,9.22 nM,"C#CC(=O)N1CCCC[C@H]1c1nc(-c2ccc(C(=O)Nc3cc(OC)ccn3)cc2)c(C(N)=O)n1N [Example 97, (S)-1-amino-4-(4-((4-methoxypyridin-2-yl)carbamoyl)phenyl)-2-(1-propioloylpiperidin-2-yl)-1H-imidazole-5-carboxamide]"
9,2.78 nM,"C#CC(=O)N1CCCC[C@H]1c1nc(-c2ccc(C(=O)Nc3cc(Cl)ccn3)cc2)c(C(N)=O)n1N [Example 99, (S)-1-amino-4-(4-((4-chloropyridin-2-yl)carbamoyl)phenyl)-2-(1-propioloylpiperidin-2-yl)-1H-imidazole-5-carboxamide]"
10,9.99 nM,"C#CC(=O)N1CCCC[C@H]1c1nc(-c2ccc(C(=O)Nc3cc(CC)ccn3)cc2)c(C(N)=O)n1N [Example 100, (S)-1-amino-4-(4-((4-ethylpyridin-2-yl)carbamoyl)phenyl)-2-(1-propioloylpiperidin-2-yl)-1H-imidazole-5-carboxamide]"
11,211 nM,"C=CC(=O)N1CCCC[C@H]1c1nc(-c2ccc(C(=O)Nc3cccnn3)cc2)c(C(N)=O)n1N [Example 101, (S)-2-(1-acryloylpiperidin-2-yl)-1-amino-4-(4-(pyridazin-3-ylcarbamoyl)phenyl)-1H-imidazole-5-carboxamide]"
12,2280 nM,"CC#CC(=O)N1CCCC[C@H]1c1nc(-c2ccc(C(=O)Nc3cccnn3)cc2)c(C(N)=O)n1N [Example 102, (S)-1-amino-2-(1-(but-2-ynoyl)piperidin-2-yl)-4-(4-(pyridazin-3-ylcarbamoyl)phenyl)-1H-imidazole-5-carboxamide]"
13,176 nM,"C=CC(=O)N1CCC(Cc2nc(-c3ccc(C(=O)Nc4ccccn4)cc3)c(C(N)=O)n2N)CC1 [Example 103, 2-((1-acryloylpiperidin-4-yl)methyl)-1-amino-4-(4-(pyridin-2-ylcarbamoyl)phenyl)-1H-imidazole-5-carboxamide]"
14,459 nM,"CC#CC(=O)N1CCC(Cc2nc(-c3ccc(C(=O)Nc4ccccn4)cc3)c(C(N)=O)n2N)CC1 [Example 104, 1-amino-2-((1-(but-2-ynoyl)piperidin-4-yl)methyl)-4-(4-(pyridin-2-ylcarbamoyl)phenyl)-1H-imidazole-5-carboxamide]"
15,15 nM,"C=CC(=O)N1CCCC[C@H]1c1nc(-c2ccc(C(=O)Nc3cc(F)ccn3)cc2)c(C(N)=O)n1N [Example 106, (S)-2-(1-acryloylpiperidin-2-yl)-1-amino-4-(4-((4-fluoropyridin-2-yl)carbamoyl)phenyl)-1H-imidazole-5-carboxamide]"
16,44.5 nM,"C=CC(=O)N1CCCC[C@H]1c1nc(-c2ccc(C(=O)Nc3cc(C)c(F)cn3)cc2)c(C(N)=O)n1N [Example 107, (S)-2-(1-acryloylpiperidin-2-yl)-1-amino-4-(4-((5-fluoro-4-methylpyridin-2-yl)carbamoyl)phenyl)-1H-imidazole-5-carboxamide]"
17,121 nM,"CC#CC(=O)N1CCCC[C@H]1c1nc(-c2ccc(C(=O)Nc3cc(C)c(F)cn3)cc2)c(C(N)=O)n1N [Example 108, (S)-1-amino-2-(1-(but-2-ynoyl)piperidin-2-yl)-4-(4-((5-fluoro-4-methylpyridin-2-yl)carbamoyl)phenyl)-1H-imidazole-5-carboxamide]"
18,1.9 nM,"C=CC(=O)N1CCCC[C@H]1c1nc(-c2ccc(C(=O)Nc3cc(-c4ccc(Cl)cc4)ccn3)cc2)c(C(N)=O)n1N [Example 109, (S)-2-(1-acryloylpiperidin-2-yl)-1-amino-4-(4-((4-(4-chlorophenyl)pyridin-2-yl)carbamoyl)phenyl)-1H-imidazole-5-carboxamide]"
19,14.8 nM,"CC#CC(=O)N1CCCC[C@H]1c1nc(-c2ccc(C(=O)Nc3cc(-c4ccc(Cl)cc4)ccn3)cc2)c(C(N)=O)n1N [Example 110, (S)-1-amino-2-(1-(but-2-ynoyl)piperidin-2-yl)-4-(4-((4-(4-chlorophenyl)pyridin-2-yl)carbamoyl)phenyl)-1H-imidazole-5-carboxamide]"
20,10.6 nM,"C=CC(=O)N1CCCC[C@H]1c1nc(-c2ccc(C(=O)Nc3cc(-c4ccc(C#N)cc4)ccn3)cc2)c(C(N)=O)n1N [Example 111, (S)-2-(1-acryloylpiperidin-2-yl)-1-amino-4-(4-((4-(4-cyanophenyl)pyridin-2-yl)carbamoyl)phenyl)-1H-imidazole-5-carboxamide]"
21,22.8 nM,"CC#CC(=O)N1CCCC[C@H]1c1nc(-c2ccc(C(=O)Nc3cc(-c4ccc(C#N)cc4)ccn3)cc2)c(C(N)=O)n1N [Example 112, (S)-1-amino-2-(1-(but-2-ynoyl)piperidin-2-yl)-4-(4-((4-(4-cyanophenyl)pyridin-2-yl)carbamoyl)phenyl)-1H-imidazole-5-carboxamide]"

# Target: T1, BTK
# Assay: BTK inhibition assay by Reaction Biology Corporation (33P-ATP, filter-binding)
# Assay type: biochemical
# Conditions: footnote a: from Reaction Biology Corporation
# Method: as §1
# a) Reagent and Procedure by Reaction Biology Corporation:
# Base Reaction buffer; 20 mM Hepes (pH 7.5), 10 mM MgCl2, 1 mM EGTA, 0.02%. Brij35, 0.02 mg/ml BSA, 0.1 mM Na3VO4, 2 mM DTT, 1% DMSO. Required cofactors were added individually to each kinase reaction. Compound handling: testing compounds were dissolved in 100% DMSO to specific concentration. The serial dilution was conducted by Integra Viaflo Assist in DMSO.
# The substrate was prepared in freshly prepared reaction buffer of above and required cofactors were added to the substrate solution. The kinase was delivered to the substrate solution and the mixture was gently mixed. Testing compounds in 100% DMSO was added to the kinase reaction mixture by Acoustic technology (Echo550; nanoliter range) and the new mixture was incubated for 20 min at room temperature. Then ^33P-ATP (Specific activity 10 μCi/μl) was added to the reaction mixture to initiate the reaction and the mixture was incubated for 2 hours at room temperature. The radioactivity was detected by filter-binding method and the kinase activity data was expressed as the percent of remaining kinase activity in test sample compared to vehicle (dimethyl sulfoxide) reaction. IC50 values and curve fits were obtained using Prism (GraphPad Software). The result is outlined in Table-I
row,IC50,SMILES
1,85 nM,"C#CC(=O)N1CCC[C@H]1c1nc(-c2ccc(C(=O)Nc3ccccn3)cc2)c(C(N)=O)n1N [Example 7, (S)-1-amino-2-(1-propioloylpyrrolidin-2-yl)-4-(4-(pyridin-2-ylcarbamoyl)phenyl)-1H-imidazole-5-carboxamide]"
2,5920 nM,"N#CN1CCC[C@H]1c1nc(-c2ccc(C(=O)Nc3ccccn3)cc2)c(C(N)=O)n1N [Example 9, (S)-1-amino-2-(1-cyanopyrrolidin-2-yl)-4-(4-(pyridin-2-ylcarbamoyl)phenyl)-1H-imidazole-5-carboxamide]"
3,13.5 nM,"C#CC(=O)N1CCC[C@H]1c1nc(-c2ccc(C(=O)Nc3cc(OC)ccn3)cc2)c(C(N)=O)n1N [Example 33, (S)-1-amino-4-(4-((4-methoxypyridin-2-yl)carbamoyl)phenyl)-2-(1-propioloylpyrrolidin-2-yl)-1H-imidazole-5-carboxamide]"
4,2210 nM,"CCc1ccnc(NC(=O)c2ccc(-c3nc([C@@H]4CCCN4C(=O)C=C(C)C)n(N)c3C(N)=O)cc2)c1 [Example 37, (S)-1-amino-4-(4-((4-ethylpyridin-2-yl)carbamoyl)phenyl)-2-(1-(3-methylbut-2-enoyl)pyrrolidin-2-yl)-1H-imidazole-5-carboxamide]"

# Reference: US12291516B2, “Substituted 1-amino-1H-imidazole-5-carboxamide as Bruton's tyrosine kinase inhibitors” (Henan Zhiwei Biomedicine Co., Ltd., priority 2019, dated 2025)
